Test results as given in ChEMBL document CHEMBL3425432, “Azide-alkyne cycloaddition-mediated cyclization of phosphonopeptides and their evaluation as PTP1B binders and enrichment tools” (Bioorg Med Chem, 2015).
Activity calls are given as the source filed them. No cut-off for these calls is given here. *1 amine or outer side, *2 acyl side, *3 side chain or, on linkers, in order; H or OH if unused. Where a SMILES comes first, the peptide text is derived from it. [ ]: non-standard residue; d: D form. The star is where a group is joined. F2Pmp = N[C@@H](Cc1ccc(C(F)(F)P(=O)(O)O)cc1)C(=O)O; Biotin = O=C1N[C@H]2[C@H](CS[C@H]2CCCCC(=O)*)N1; X1 = [N-]=[N+]=N[C@@H](CCCCN[*:1])C(=O)[*:2]; pY = N[C@@H](Cc1ccc(OP(=O)(O)O)cc1)C(=O)O; Hexanoyl(6-N3) = [N-]=[N+]=NCCCCCC(=O)*; Pra = C#CC[C@H](N)C(=O)O

Legend:
[1] = target: Proto-oncogene tyrosine-protein kinase Src (Homo sapiens) (UniProt P12931); test: Binding affinity to c-Src in human MCF7 cells by SDS-PAGE based pull-down assay; type: cell-based
[2] = Retention time of the compound by HPLC method; type: physicochemical
[3] = target: Receptor-type tyrosine-protein phosphatase alpha (Homo sapiens) (UniProt P18433); test: Binding affinity to PTPalpha in human MCF7 cells by SDS-PAGE based pull-down assay; type: cell-based
[4] = target: T1, Tyrosine-protein phosphatase non-receptor type 1 (Homo sapiens) (UniProt P18031); test: Binding affinity to PTP1B in human MCF7 cells by SDS-PAGE based pull-down assay; type: cell-based
T1 sequence (whole entry): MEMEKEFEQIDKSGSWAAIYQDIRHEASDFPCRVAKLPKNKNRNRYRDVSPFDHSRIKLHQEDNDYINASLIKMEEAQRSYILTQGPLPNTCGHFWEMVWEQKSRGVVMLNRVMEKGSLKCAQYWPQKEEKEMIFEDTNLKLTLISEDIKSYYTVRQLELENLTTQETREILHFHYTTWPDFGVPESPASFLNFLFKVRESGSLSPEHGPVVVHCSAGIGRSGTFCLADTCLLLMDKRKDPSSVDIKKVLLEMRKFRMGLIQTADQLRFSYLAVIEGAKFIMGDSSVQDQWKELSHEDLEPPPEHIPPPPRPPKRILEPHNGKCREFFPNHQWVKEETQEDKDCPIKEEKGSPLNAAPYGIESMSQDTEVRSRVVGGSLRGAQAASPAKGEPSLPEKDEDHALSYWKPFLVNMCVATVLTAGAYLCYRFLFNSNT

[5] = target: T2, Tyrosine-protein phosphatase non-receptor type 2 (Homo sapiens) (UniProt P17706); test: Binding affinity to TCPTP in human MCF7 cells by SDS-PAGE based pull-down assay; type: cell-based
T2 sequence (whole entry): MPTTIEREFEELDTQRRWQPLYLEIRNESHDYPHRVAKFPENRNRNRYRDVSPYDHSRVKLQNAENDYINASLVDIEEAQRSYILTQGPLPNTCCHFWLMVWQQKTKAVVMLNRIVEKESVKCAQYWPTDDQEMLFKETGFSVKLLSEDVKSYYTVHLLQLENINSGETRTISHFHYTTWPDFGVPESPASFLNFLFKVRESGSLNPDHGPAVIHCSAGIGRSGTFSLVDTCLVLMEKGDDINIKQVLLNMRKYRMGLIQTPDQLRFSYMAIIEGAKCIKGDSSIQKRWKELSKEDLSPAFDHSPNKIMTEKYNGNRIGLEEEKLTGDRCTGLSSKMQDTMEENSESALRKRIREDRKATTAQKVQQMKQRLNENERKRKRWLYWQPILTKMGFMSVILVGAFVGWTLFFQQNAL

[6] = target: T1, Tyrosine-protein phosphatase non-receptor type 1 (Homo sapiens); test: Binding affinity to PTP1B in human U2OS cells by SDS-PAGE based pull-down assay; type: cell-based

Receptor-type tyrosine-protein phosphatase alpha (Homo sapiens), sequence (P18433 20-802 limits assumed): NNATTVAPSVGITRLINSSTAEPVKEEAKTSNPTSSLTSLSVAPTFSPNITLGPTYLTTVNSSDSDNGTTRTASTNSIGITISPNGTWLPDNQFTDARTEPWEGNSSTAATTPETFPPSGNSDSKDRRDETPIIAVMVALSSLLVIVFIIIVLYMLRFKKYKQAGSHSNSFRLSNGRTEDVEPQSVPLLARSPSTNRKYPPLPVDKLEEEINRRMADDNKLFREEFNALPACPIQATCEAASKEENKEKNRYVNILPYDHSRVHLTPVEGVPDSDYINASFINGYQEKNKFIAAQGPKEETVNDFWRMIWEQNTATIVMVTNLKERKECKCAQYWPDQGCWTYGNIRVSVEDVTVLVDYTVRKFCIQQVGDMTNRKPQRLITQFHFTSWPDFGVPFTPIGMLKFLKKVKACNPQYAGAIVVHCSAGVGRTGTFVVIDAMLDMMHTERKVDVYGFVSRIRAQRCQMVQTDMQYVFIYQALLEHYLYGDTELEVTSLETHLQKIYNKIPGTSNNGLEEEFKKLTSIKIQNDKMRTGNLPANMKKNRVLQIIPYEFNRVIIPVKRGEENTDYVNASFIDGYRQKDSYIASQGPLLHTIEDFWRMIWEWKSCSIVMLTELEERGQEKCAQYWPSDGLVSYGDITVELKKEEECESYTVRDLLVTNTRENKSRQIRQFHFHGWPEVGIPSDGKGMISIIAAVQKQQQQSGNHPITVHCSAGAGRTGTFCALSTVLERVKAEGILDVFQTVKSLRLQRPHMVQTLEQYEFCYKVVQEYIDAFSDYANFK
Proto-oncogene tyrosine-protein kinase Src (Homo sapiens), sequence (P12931 2-536 limits assumed): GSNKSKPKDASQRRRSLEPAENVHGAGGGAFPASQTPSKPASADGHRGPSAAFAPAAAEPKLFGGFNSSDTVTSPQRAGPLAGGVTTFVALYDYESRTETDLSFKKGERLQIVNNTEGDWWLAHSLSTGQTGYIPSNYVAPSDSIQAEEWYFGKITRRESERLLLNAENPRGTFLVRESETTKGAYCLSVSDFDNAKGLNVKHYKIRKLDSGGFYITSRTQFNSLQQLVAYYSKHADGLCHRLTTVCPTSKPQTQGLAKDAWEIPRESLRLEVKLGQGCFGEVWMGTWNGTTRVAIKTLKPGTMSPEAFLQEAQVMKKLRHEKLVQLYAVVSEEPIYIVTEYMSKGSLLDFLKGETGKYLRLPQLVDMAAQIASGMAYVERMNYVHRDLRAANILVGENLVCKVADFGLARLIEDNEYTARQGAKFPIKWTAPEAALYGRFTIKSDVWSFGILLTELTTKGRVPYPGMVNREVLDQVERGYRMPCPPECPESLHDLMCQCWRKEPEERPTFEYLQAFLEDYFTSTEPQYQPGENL

SMILES	Activity [1]	Retention_time [2] [min]	Activity [3]	Activity [4]	Activity [5]	Activity [6]
CC(=O)N[C@@H](CCCCNC(=O)CCCC[C@@H]1SC[C@@H]2NC(=O)N[C@@H]21)C(=O)N[C@@H](CCC(=O)O)C(=O)N1CCC[C@H]1C(=O)N[C@@H](CCC(N)=O)C(=O)N[C@@H](Cc1ccc(OP(=O)(O)O)cc1)C(=O)N[C@@H](CCC(N)=O)C(=O)N1CCC[C@H]1C(=O)NCC(=O)N[C@@H](CCC(=O)O)C(=O)N[C@@H](CC(N)=O)C(=O)N[C@@H](CC(C)C)C(N)=O (Ac-K(Biotin)EPQ[pY]QPGENL-NH2)	inactive	6.6	inactive	inactive	inactive	–
CC(C)C[C@H](NC(=O)[C@H](CC(N)=O)NC(=O)[C@H](CCC(=O)O)NC(=O)CNC(=O)[C@@H]1CCCN1C(=O)[C@H](CCC(N)=O)NC(=O)[C@H](Cc1ccc(C(F)(F)P(=O)(O)O)cc1)NC(=O)[C@H](CCC(N)=O)NC(=O)[C@@H]1CCCN1C(=O)[C@H](CCC(=O)O)NC(=O)CCCC[C@@H]1SC[C@@H]2NC(=O)N[C@@H]21)C(N)=O (Biotin-EPQ[F2Pmp]QPGENL-NH2)	–	8	–	–	–	inactive
C#CC[C@H](NC(=O)[C@H](CC(N)=O)NC(=O)[C@H](CCC(=O)O)NC(=O)CNC(=O)[C@@H]1CCCN1C(=O)[C@H](CCC(N)=O)NC(=O)[C@H](Cc1ccc(C(F)(F)P(=O)(O)O)cc1)NC(=O)[C@H](CCC(N)=O)NC(=O)[C@@H]1CCCN1C(=O)[C@H](CCC(=O)O)NC(=O)[C@H](CCCCNC(=O)CCCC[C@@H]1SC[C@@H]2NC(=O)N[C@@H]21)N=[N+]=[N-])C(N)=O (Biotin-[X1]EPQ[F2Pmp]QPGEN[Pra]-NH2)	–	8.8	–	–	–	inactive
NC(=O)CC[C@@H]1NC(=O)[C@@H]2CCCN2C(=O)[C@H](CCC(=O)O)NC(=O)[C@@H](CCCCNC(=O)CCCC[C@@H]2SC[C@@H]3NC(=O)N[C@@H]32)NC(=O)CCCCCn2cc(nn2)C[C@H](C(N)=O)NC(=O)[C@H](CC(N)=O)NC(=O)[C@H](CCC(=O)O)NC(=O)CNC(=O)[C@@H]2CCCN2C(=O)[C@H](CCC(N)=O)NC(=O)[C@H](Cc2ccc(O)cc2)NC1=O	–	8.5	–	–	–	inactive
C#CC[C@H](NC(=O)[C@H](CC(N)=O)NC(=O)[C@H](CCC(=O)O)NC(=O)CNC(=O)[C@@H]1CCCN1C(=O)[C@H](CCC(N)=O)NC(=O)[C@H](Cc1ccc(C(F)(F)P(=O)(O)O)cc1)NC(=O)[C@H](CCC(N)=O)NC(=O)[C@@H]1CCCN1C(=O)[C@H](CCC(=O)O)NC(=O)[C@H](CCCCNC(=O)CCCC[C@@H]1SC[C@@H]2NC(=O)N[C@@H]21)NC(=O)CCCCCN=[N+]=[N-])C(N)=O ({Hexanoyl(6-N3)}-K(Biotin)EPQ[F2Pmp]QPGEN[Pra]-NH2)	–	9.5	–	–	–	inactive
CC(=O)N[C@@H](CCCCNC(=O)CCCC[C@@H]1SC[C@@H]2NC(=O)N[C@@H]21)C(=O)N[C@@H](CCC(=O)O)C(=O)N1CCC[C@H]1C(=O)N[C@@H](CCC(N)=O)C(=O)N[C@@H](Cc1ccc(C(F)(F)P(=O)(O)O)cc1)C(=O)N[C@@H](CCC(N)=O)C(=O)N1CCC[C@H]1C(=O)NCC(=O)N[C@@H](CCC(=O)O)C(=O)N[C@@H](CC(N)=O)C(=O)N[C@@H](CC(C)C)C(N)=O (Ac-K(Biotin)EPQ[F2Pmp]QPGENL-NH2)	–	9.1	–	–	–	Active
NC(=O)CC[C@@H]1NC(=O)[C@@H]2CCCN2C(=O)[C@H](CCC(=O)O)NC(=O)[C@@H](CCCCNC(=O)CCCC[C@@H]2SC[C@@H]3NC(=O)N[C@@H]32)n2cc(nn2)C[C@H](C(N)=O)NC(=O)[C@H](CC(N)=O)NC(=O)[C@H](CCC(=O)O)NC(=O)CNC(=O)[C@@H]2CCCN2C(=O)[C@H](CCC(N)=O)NC(=O)[C@H](Cc2ccc(C(F)(F)P(=O)(O)O)cc2)NC1=O	–	7.1	–	–	–	Active
NC(=O)CC[C@@H]1NC(=O)[C@@H]2CCCN2C(=O)[C@H](CCC(=O)O)NC(=O)[C@@H](CCCCNC(=O)CCCC[C@@H]2SC[C@@H]3NC(=O)N[C@@H]32)NC(=O)CCCCCn2cc(nn2)C[C@H](C(N)=O)NC(=O)[C@H](CC(N)=O)NC(=O)[C@H](CCC(=O)O)NC(=O)CNC(=O)[C@@H]2CCCN2C(=O)[C@H](CCC(N)=O)NC(=O)[C@H](Cc2ccc(C(F)(F)P(=O)(O)O)cc2)NC1=O	inactive	7.1	inactive	Active	Active	Active
NC(=O)CC[C@@H]1NC(=O)[C@@H]2CCCN2C(=O)[C@H](CCC(=O)O)NC(=O)[C@@H](CCCCNC(=O)CCCC[C@@H]2SC[C@@H]3NC(=O)N[C@@H]32)n2cc(nn2)C[C@H](C(N)=O)NC(=O)[C@H](CC(N)=O)NC(=O)[C@H](CCC(=O)O)NC(=O)CNC(=O)[C@@H]2CCCN2C(=O)[C@H](CCC(N)=O)NC(=O)[C@H](Cc2ccc(O)cc2)NC1=O	inactive	9.5	inactive	inactive	inactive	inactive
